The source of these data is US20110275638A1, “PIPERAZINE DERIVATIVES AND THEIR USE AS LEPTIN RECEPTOR MODULATORS” (priority 2008, published 2011).

The test system of assay [1] is JEG-3 cells. The conditions noted are these: Biol. Reprod. (2007) 76: 203-10; cited from earlier work.
For assay [2], the system named is JEG-3 cells. Nature of the assay: [3H]-thymidine incorporation in JEG-3 cells (JEG-3 protocol). Format: cell-based. As to conditions: FIG. 4. As to the method:
In JEG-3 cells (choriocarcinoma cell line) leptin is able to stimulate proliferation up to 3 fold (Biol. Reprod. (2007) 76: 203-10). […] The radioactivity incorporated by the cells is an index of their proliferative activity and is measured in counts per minute (CPM) with a liquid scintillation beta counter.
This finding can be applied to test whether a compound is able to either reproduce the effect of leptin on cell proliferation (leptin receptor agonist mimetic) (i.e., a given compound will cause an increase in incorporated [^3H]-Thymidine by the cells) or to inhibit the effect of leptin (antagonistic effect) by preventing the leptin-mediated increase in [^3H]-thymidine incorporation.
(Dividing cells build labelled thymidine or BrdU into new DNA.)

Turning to “leptin: hormone synthesized in fat cells that is believed to act in the hypothalamus to reduce food intake and body weight”, the stimulation of proliferation result in assay [1] was “up to 3 fold”. For the same substance, in assay [2] (JEG-3 cells (choriocarcinoma cell line), read-out: EC50, increase in [3H]-thymidine incorporation), the EC50 is 2.1 nM. Moreover, the “concentration of maximal effect on [3H]-thymidine incorporation” value in assay [2] (JEG-3 cells) is 100 nM.
